{
  "source": "paper PMC12154284",
  "about": "“FYCO1 Peptide Analogs: Design and Characterization of Autophagy Inhibitors as Co-Adjuvants in Taxane Chemotherapy of Prostate Cancer” (International Journal of Molecular Sciences, 2025)",
  "key": {"[1]": {"target": "human recombinant His-tagged LC3B (Homo sapiens, UniProt Q9GZQ8)", "experiment": "MST binding to human recombinant His-tagged LC3B", "settings": "Table S1", "experimental": "To measure the dissociation constants (Kd) of the peptides on human recombinant His-tagged LC3B protein, MST experiments were carried out on a Monolith NT.115^Pico instrument (see the Materials and Methods section for details).\nA constant concentration of red-labelled LC3B (10 nM) was incubated with sixteen 1:1 serial dilutions of peptides (concentration details are consultable in the Supplementary Materials, Table S1). PBS-T (phosphate-buffered saline + 0.05% Tween™ 20), from NanoTemper Technologies, with 2.5% dimethyl sulfoxide (DMSO) (Product No. D8418; Sigma-Aldrich, Saint Louis, MO, USA) was used as buffer. After 15 min of incubation at room temperature, samples were loaded into standard capillaries (Product No. MO-K022; NanoTemper Technologies) and analyzed at 25 °C with 20% excitation power and medium MST power (40%) using the “Binding Affinity” mode available in the MO.Control v1.6 software (NanoTemper Technologies GmbH, München, Germany). Prior to Kd determination, peptide auto-fluorescence was assessed. Data analysis was performed using MO.Affinity Analysis v2.3 software (NanoTemper Technologies GmbH, München, Germany) applying the Kd model for fitting the binding curve, while the figures were generated using GraphPad Prism v8.0.2 software (GraphPad, Boston, MA, USA).\nTwo independent experiments were performed to determine the Kd value.\nRA = Response Amplitude; SNR = Signal -to-Noise Ratio."}, "[2]": {"experiment": "Peptide aggregation in MST capillaries", "assay_type": "physicochemical", "protocol": "This technique enables the determination of the dissociation constant (Kd) across a concentration range spanning from 1 picomolar (pM) to the millimolar (mM) level. The experimental conditions mirrored those in our previously published work. […] A constant concentration of red-labelled LC3B (10 nM) was incubated with sixteen 1:1 serial dilutions of peptides (concentration details are consultable in the Supplementary Materials, Table S1). PBS-T (phosphate-buffered saline + 0.05% Tween™ 20), from NanoTemper Technologies, with 2.5% dimethyl sulfoxide (DMSO) (Product No. D8418; Sigma-Aldrich, Saint Louis, MO, USA) was used as buffer. After 15 min of incubation at room temperature, samples were loaded into standard capillaries (Product No. MO-K022; NanoTemper Technologies) and analyzed at 25 °C with 20% excitation power and medium MST power (40%) using the “Binding Affinity” mode available in the MO.Control v1.6 software (NanoTemper Technologies GmbH, München, Germany). Prior to Kd determination, peptide auto-fluorescence was assessed. […] The “Capillary Scan” graphs, showing the fluorescence homogeneity in the capillaries of all biophysically tested peptides, are provided in the Supplementary Materials, Figure S5."}, "PC cells": {"system": "PC cells", "settings": "with Doc, cited from earlier work", "source_text": "(§1) Many studies have analyzed the nature of autophagy activated by Doc in PC and the impact of autophagy inhibitors on cell proliferation. The results obtained using 3-Methyladenine (3-MA) in association with Doc were contradictory. […] A more convincing result was obtained using the autophagy inhibitor CQ which enhanced the action ..."}, "PC-3 cells [3]": {"system": "PC-3 cells", "settings": "with Doc; ref [45]; cited from earlier work", "source_text": "as §1"}, "LC3B (Homo sapiens)": {"target": "LC3B (Homo sapiens) (UniProt Q9GZQ8)", "settings": "cited from earlier work"}, "[4]": {"system": "breast and colon cancer cells", "settings": "ref [32]; cited from earlier work", "source_text": "The growing applications of bromine and iodine substituents in anticancer treatment lend ..."}, "[5]": {"system": "LC3-I and LC3-II in PC-3 cells", "experiment": "Western blot of LC3-I and LC3-II in PC-3 cells", "assay_type": "cell-based, Human", "settings": "AM10, Doc (25 nM) or both, 48 h", "protocol": "(§2) PC-3 cells were plated at 2 × 10^5 cells/dish in 6 cm dishes and treated with different compounds. At the end of the treatments the cells were lysed in RIPA buffer. Protein extracts (15–35 μg) were resuspended in presence of reducing Sample buffer (Bio-Rad Laboratories, Segrate, Milano, Italy), heated at 95 °C for 5 min and separated by SDS-PAGE WB. Proteins were transferred onto nitrocellulose or PVDF membranes. After blocking with nonfat dried milk, membranes were incubated with anti-ATG5 (1:1000) (#12994) Cell Signaling Technology Inc. (Boston, MA, USA), anti-LC3 (1:1000) (L8918) (Sigma-Aldrich), anti-SQSTM1/p62 (1:2000) (PA5-20839) (Thermo Fisher Scientific, Waltham, MA, USA), anti-cleaved-caspase-3 (1:500) (#9664) Cell Signaling Technology Inc. primary antibodies overnight at 4 °C. Horseradish peroxidase (HRP) conjugated secondary anti-rabbit or anti-mouse antibodies were used for 1 h at room temperature and the membranes were processed using chemiluminescence kit Cyanagen Ultra (Cyanagen, Bologna, Italy). In each WB experiment alpha-tubulin expression (T6199) (Sigma-Aldrich, St. Louis, MO, USA) was evaluated as a protein control. Relative optical density of the bands was assessed by ImageJ software (version 1.54g). Uncropped WB images are available in the Supporting Information."}, "PC-3 cells [6]": {"system": "PC-3 cells", "experiment": "MTT cell viability, PC-3", "assay_type": "cell-based, Human", "settings": "MTT, 48 h, 1-100 nM", "protocol": "The study was conducted on several cancer cells. Human CRPC cell lines (PC-3 and DU145) were purchased from the American Type Culture Collection (ATCC, Manassas, VA, USA) and cultured at 37 °C and 5% CO2 in RPMI 1640 (EuroClone, Milano, Italy) supplemented, respectively, with 7.5% (PC3) and 5% (DU145) FBS (Gibco, ThermoFisher Scientific, Waltham, MA, USA), 1% L-glutamine, and antibiotics (100 IU/mL penicillin G). Luminal A MCF-7 breast cancer cells (ATCC, Manassas, VA, USA) were cultured in Dulbecco’s Modified Eagle Medium/Nutrient Mixture F-12 (DMEM-F12, Gibco Laboratories, Waltham, MA, USA) supplemented with 10% fetal bovine serum (FBS, Gibco Laboratories, Waltham, MA, USA), 1% penicillin/streptomycin (Gibco Laboratories), and 1% L-glutamine (Gibco Laboratories). A549 human lung cancer cell line (ATCC, Manassas, VA, USA) were cultured in Dulbecco’s modified eagle medium (DMEM, Lonza, Switzerland) supplemented with 10% FBS (Gibco Laboratories, Waltham, MA, USA), 1% of 100 u/mL penicillin/streptomycin (Gibco Laboratories), and 1% L-glutamine (Gibco Laboratories). […]\nFor viability studies, MTS (Cell Titer 96 Aqueous One Solution Cell Proliferation Assay) (Promega, Nacka, Sweden) and 3-(4,5-dimethylthiazole-2-yl)-2,5-diphenyltetrazolium bromide (MTT) (Sigma-Aldrich, St. Louis, MO, USA) assays were conducted. […] The absorbance (λ = 550 nm) was measured by an EnSpire Multimode Plate reader (Perkin Elmer, Milano, Italy). The absorbance value of untreated cells was set at 100% (control), and the viability of treated cells was expressed as a percentage of the control. […] After 72 h, cell viability was assessed using an MTS assay according to the manufacturer’s protocol using a 96-well-plate spectrophotometer (Varioskan Flash Multimode Reader; ThermoFisher Scientific, Waltham, MA, USA) set at λ = 490 nm. The absorbance value of untreated cells was set at 100% (control), and the viability of treated cells was expressed as a percentage of the control. […]"}, "[7]": {"system": "cleaved caspase-3 in PC-3 cells", "experiment": "Western blot of cleaved caspase-3 in PC-3 cells", "assay_type": "cell-based, Human", "settings": "AM10, Doc (25 nM) or both, 48 h", "protocol": "as §2"}, "autophagic response": {"system": "autophagic response", "settings": "CRPC therapy; ref [39]; cited from earlier work", "source_text": "An important problem of tumor is represented by therapy resistance. In fact, in prostate cancer, numerous studies have investigated the implications of autophagy in resistance to hormonal therapies or chemotherapeutic agents. […] Docetaxel (Doc), a chemotherapeutic drug which inhibits microtubule depolymerization, represents the first-line treatment for metastatic CRPC. The treatment is effective in the early stages, but over time its efficacy is drastic ..."}},
  "note": "“Also recorded” adds a separate entry of the source.",
  "data": [
    {"compound": "CC[C@H](C)[C@H](NC(=O)[C@H](CC(=O)O)NC(=O)[C@H](Cc1ccccc1)NC(=O)[C@@H](NC(=O)[C@H](C)NC(=O)[C@@H](N)CC(=O)O)C(C)C)C(=O)N[C@H](C(=O)N[C@H](C(=O)N[C@H]1CSCc2ccc(cc2)CSC[C@@H](C(=O)O)NC(=O)[C@H](CCC(=O)O)NC(=O)[C@H](CCC(=O)O)NC1=O)[C@@H](C)O)[C@@H](C)CC", "note": "[AM7]", "values": [
      {"measurement": "Response Amplitude (RA)", "setting": "[1]", "value": 3.7},
      {"measurement": "aggregation at highest concentrations, in words", "setting": "[2]; 125, 62.5 and 31.25 µM, MST capillary scan, PBS-T + 2.5% DMSO", "value": "the three highest concentration points (125, 62.5, and 31.25 µM) were discarded due to aggregation; also recorded: the three highest concentrations (125, 62.5, and 31.25 µM) were excluded from analysis due to aggregation phenomena"},
      {"measurement": "concentration at which aggregation is displayed", "setting": "[2]; MST buffer PBS-T + 2.5% DMSO, 25 °C", "value": "≥ 31.25", "unit": "µM"}
    ]},
    {"compound": "Cn1cnc(N)c2ncnc1-2", "note": "[3-MA, 3-Methyladenine]", "values": [
      {"measurement": "effect on chemotherapy efficacy", "setting": "PC cells; ref [43],[47],[48]", "value": "decreased the chemotherapy efficacy"},
      {"measurement": "effect on cytotoxic action of Doc", "setting": "PC cells; ref [46] Hu and collaborators", "value": "enhanced the cytotoxic action of Doc"},
      {"measurement": "effect on cytotoxicity of Doc in PC-3 cells", "setting": "PC-3 cells [3]", "value": "does not modify the cytotoxicity of Doc in PC-3 cells"}
    ]},
    {"compound": "FYCO1-LIR peptide", "values": [
      {"measurement": "Kd", "setting": "LC3B (Homo sapiens)", "value": 3.1, "unit": "µM"}
    ]},
    {"compound": "Cc1ccc(S(=O)(=O)[N-]Br)cc1.[Na+]", "note": "[bromamine T]", "values": [
      {"measurement": "cytotoxic effects against breast and colon cancer cells", "setting": "[4]", "value": "strong cytotoxic effects against breast and colon cancer cells"}
    ]},
    {"compound": "CC(=O)O[C@@]12CO[C@@H]1C[C@H](O)[C@@]1(C)C(=O)[C@H](O)C3=C(C)[C@@H](OC(=O)[C@H](O)[C@@H](NC(=O)OC(C)(C)C)c4ccccc4)C[C@@](O)([C@@H](OC(=O)c4ccccc4)[C@H]21)C3(C)C", "note": "[Doc, Docetaxel, reference compound]", "values": [
      {"measurement": "LC3-I / LC3-II expression, Doc/AM10 experiment", "setting": "[5]", "value": "significant increase in LC3-II expression"},
      {"measurement": "PC-3 cell viability, Docetaxel", "setting": "PC-3 cells [6]", "value": "significant reduction in cell viability at concentrations of 10 nM, 25 nM, 50 nM, and 100 nM, with a dose-dependent effect"},
      {"measurement": "cleaved caspase-3 / apoptosis", "setting": "[7]", "value": "trigger apoptotic cell death by activating the executor caspase-3"}
    ]},
    {"compound": "CNC(=O)c1ccc(N2C(=S)N(c3ccc(C#N)c(C(F)(F)F)c3)C(=O)C2(C)C)cc1F", "note": "[Enzalutamide]", "values": [
      {"measurement": "autophagic response", "setting": "autophagic response", "value": "activate an autophagic response that reduces their effectiveness"}
    ]},
    {"compound": "C[C@]12CC[C@H](O)CC1=CC[C@@H]1[C@@H]2CC[C@]2(C)C(c3cccnc3)=CC[C@@H]12", "note": "[Abiraterone]", "values": [
      {"measurement": "autophagic response", "setting": "autophagic response", "value": "activate an autophagic response that reduces their effectiveness"}
    ]},
    {"compound": "CC[C@H](C)[C@H](NC(=O)[C@H](CC(=O)O)NC(=O)[C@H](Cc1ccc(I)cc1)NC(=O)[C@@H](NC(=O)[C@H](C)NC(=O)[C@@H](N)CC(=O)O)C(C)C)C(=O)N[C@H](C(=O)N[C@H](C(=O)N[C@@H](CC(=O)O)C(=O)N[C@@H](CCC(=O)O)C(=O)N[C@@H](CCC(=O)O)C(=O)N[C@@H](CC(C)C)C(=O)O)[C@@H](C)O)[C@@H](C)CC", "note": "[AM2]", "values": [
      {"measurement": "Response Amplitude (RA)", "setting": "[1]", "value": 7.8}
    ]},
    {"compound": "CCN(CC)CCCC(C)Nc1ccnc2cc(Cl)ccc12", "note": "(stereo not drawn) [CQ, Chloroquine]", "values": [
      {"measurement": "effect on the action of Doc", "setting": "PC cells; ref [49]", "value": "enhanced the action of Doc by reducing resistance to chemotherapy"}
    ]}
  ]
}
